Data from the OPERA property sets (Mansouri et al. 2018).
In brackets after ≈: the same amount, converted by molar mass.

Row | Structure (SMILES) | logP | solubility [mM]
1 | CC(C)CCOC(=O)c1cc(=O)[nH]c(=O)[nH]1 | 1.48 | 
2 | CC(O)CNc1ncc(-c2ccncc2)cc1C#N (configuration not stated) | 0.79 | 
3 | Nc1ccc(S(=O)(=O)O)cc1 | -2.16 | 
4 | CC(=O)OCN1C(=O)C2CC=CCC2C1=O (configuration not stated) | 0.97 | 
5 | C#CCN1C(=O)COc2cc(F)c(N3C(=O)C4=C(CCCC4)C3=O)cc21 | 2.55 | 
6 | N=C(N)NN=Cc1cccc([N+](=O)[O-])c1 | 0.01 | 
7 | C[C@@H]1CC[C@H](C)O1 | 1.22 | 
8 | COc1ccc2[nH]c3c4ccc(Cl)cc4ncc3c2c1 | 4.49 | 
9 | CC1CCC2C(C)C(OC3OC(C(=O)O)C(O)C(O)C3O)OC3OC4(C)CCC1C32OO4 (configuration not stated) | 1.08 | 
10 | O=c1ccc2cc3ccoc3cc2o1 | 1.67 | 
11 | N#CCCl |  | 1320 (≈ 100000 µg/mL)
12 | O=C(O)CN(CC(=O)O)Cc1cc2c(c(O)c1O)C(=O)c1ccccc1C2=O |  | 15.6 (≈ 6000 µg/mL)
13 | CCC(=O)n1ncc2c(O)ncnc21 | 0.3 | 
14 | CCCCCOC(=O)c1cc(=O)[nH]c(=O)[nH]1 | 1.62 | 
15 | O=C(NCc1ccc(F)cc1)C(=O)c1c[nH]c2ccccc12 | 2.88 | 
16 | CC(=O)/C=C/C1C(C)=CCCC1(C)C (configuration not stated) |  | 0.551 (≈ 106 µg/mL)
17 | c1ccc(CNc2[nH]cnc3ncnc2-3)cc1 | 1.57 | 
18 | COC(=O)c1ccccc1CS(N)(=O)=O | 0.37 | 
19 | CCC(C(=O)Oc1ccccc1)C(C)C (configuration not stated) | 4.2 | 
20 | O=C(Nc1ccc(Cl)cc1)c1cc([N+](=O)[O-])ccc1O | 2.54 | 
21 | Brc1cc(Br)c(Oc2c(Br)c(Br)c(Br)c(Br)c2Br)cc1Br | 8.71 | 
22 | N[C@@H]1[C@H]2CN(c3nc4c(cc3F)c(=O)c(C(=O)O)cn4-c3ccc(F)cc3F)C[C@@H]12 | 0.31 | 
23 | CC(C)C(C#N)c1ccc(Cl)cc1 (configuration not stated) | 3.41 | 
24 | OCc1ccccc1F | 1.31 | 
25 | CSc1nc(N)nc(C(Cl)(Cl)Cl)n1 | 3.12 | 
26 | N#CCCCC#N | -0.72 | 

Row | Structure (SMILES) | logP | solubility [mM]
27 | C=CCOc1ccccc1OCC(CNC(C)C)OC(=O)CCCC (configuration not stated) | 4 | 
28 | ClC1=C(Cl)C2(Cl)C(Cl)=C(Cl)C3CC1C(Cl)C32 (configuration not stated) | 5.66 | 
29 | CCCCn1ccc(=O)c(O)c1 | 0.72 | 
30 | CCCN(CCOc1c(Cl)cc(Cl)cc1Cl)C(=O)n1ccnc1 | 4.1 | 
31 | c1ccc2c(c1)ccc1cc3ccc4ccccc4c3nc12 | 6.45 | 
32 | CC(C)Nc1nc(Cl)nc(NCCO)n1 | 0.78 | 
33 | Oc1ccc2c(c1)OCC1c3cc4c(cc3OC21)OCO4 (configuration not stated) | 2.61 | 
34 | N#Cc1cc(-c2ccncc2)cnc1N1CCCC1 | 2.95 | 
35 | N#CCCC#N | -0.99 | 
36 | CCCNC(=O)CCC(NS(=O)(=O)c1ccc(C)cc1)C(=O)O (configuration not stated) | 0.02 | 
37 | CCN1CCC[C@H]1CNC(=O)c1c(OC)ccc(Br)c1OC | 2.1 | 
38 | Cc1ccc(Br)c(C)c1NC(=O)CN(CC(=O)O)CC(=O)O | -0.28 | 
39 | Clc1ccc2c(Cl)ccnc2c1 | 3.57 | 
40 | Nc1cc([N+](=O)[O-])ccc1Cl | 2.23 | 
41 | Cc1c(CNc2ccccc2)cnc2nc(N)nc(N)c12 | 2.02 | 
42 | NC(=O)CN1CCCC1=O | -1.54 | 
43 | O=[N+]([O-])c1cc(Cl)c(Cl)c(Cl)c1Cl | 3.93 | 
44 | COc1c(Cl)c(Cl)c(Cl)c(Cl)c1Cl | 5.45 | 
45 | CCCN1C(=O)C(=Cc2ccc([N+](=O)[O-])o2)SC1=NC(C)=O | 1.17 | 
46 | NS(=O)(=O)c1nn2c(=Nc3ccc(Cl)cc3)snc2s1 | 3.63 | 
47 | CCCCCCOCCO | 1.86 | 
48 | O=[N+]([O-])c1ccc2c(c1)NCC2 | 1.92 | 
49 | Fc1ccc(C2=CCNCC2)cc1 | 2.37 | 
50 | CCCCCCCCCCCCCCCCCCCCCC(=O)O |  | 4.7e-05 (≈ 0.016 µg/mL)
51 | N[C@@H](Cc1ccc(O)c(O)c1)C(=O)OC1CCCCC1 | 1.79 | 
52 | Brc1cc(Br)c(Br)c(-c2c(Br)c(Br)cc(Br)c2Br)c1Br | 5.5 | 

Row | Structure (SMILES) | logP | solubility [mM]
53 | COc1ccc(-c2cc(C#N)c(Cl)nc2C)cc1 | 3.38 | 
54 | Cc1cc(OCCN(C)C)c(C(C)C)cc1OC1CCCCC1=O (configuration not stated) | 3.63 | 
55 | CC1=NS(=O)(=O)c2cnccc2N1 | -0.41 | 
56 | CCCCN(CCC)N=O | 2.09 | 
57 | Nc1ccc2nc(S(N)(=O)=O)sc2c1 | 0.52 | 
58 | COc1ccc(N=C=S)cc1 | 3.58 | 
59 | Nc1cccc2cccc(N)c12 | 1.78 | 
60 | CNC(=O)CCC(=O)c1cccnc1 | -0.69 | 
61 | O=C([O-])c1ccccc1.[Na+] |  | 3860
62 | OCCC(F)(F)C(F)(F)C(F)(F)C(F)(F)C(F)(F)C(F)(F)F | 4.54 | 
63 | COc1cccc(Nc2ccccc2C(=O)O)c1 | 4.31 | 
64 | C[Si](C)(C)O[Si](C)(C)O[Si](C)(C)C | 6.6 | 
65 | c1ccc2nc3ccc4ccccc4c3cc2c1 | 4.48 | 
66 | O=C(O)c1ccccc1S(=O)(=O)O |  | 2470 (≈ 500000 µg/mL)
67 | N[C@@H](Cc1ccc(O)c(O)c1)C(=O)OCCOc1ccccc1 | 1.51 | 
68 | N[C@@H](CSSC[C@H](N)C(=O)O)C(=O)O | -5.08 | 
69 | CC(Cc1ccc(C(C)(C)C)cc1)CN1C[C@@H](C)O[C@@H](C)C1 (single isomer, unassigned) | 4.93 | 
70 | CC(=O)N(C)S(=O)(=O)c1ccc(C)cc1 | 1.73 | 
71 | C=CC(=O)NCCN(C)C | -0.25 | 
72 | CC(=O)NCCc1ccccc1 | 1.19 | 
73 | CC(C)(C)[C@@H](O)[C@H](Cc1ccc(Cl)cc1Cl)n1cncn1 | 3.8 | 
74 | CCOCCOCCOCC | 0.39 | 
75 | CCOP(=O)(CN(CCO)CCO)OCC | -0.72 | 
76 | CC(=O)OCCN(CCC#N)c1ccc(N=Nc2nc3ccc([N+](=O)[O-])cc3s2)cc1 | 4.08 | 0.00157 (≈ 0.69 µg/mL)
